Test [1] concerns the target T1, 5-hydroxytryptamine receptor 2C (Homo sapiens, UniProt P28335).
T1 sequence (P28335 whole entry): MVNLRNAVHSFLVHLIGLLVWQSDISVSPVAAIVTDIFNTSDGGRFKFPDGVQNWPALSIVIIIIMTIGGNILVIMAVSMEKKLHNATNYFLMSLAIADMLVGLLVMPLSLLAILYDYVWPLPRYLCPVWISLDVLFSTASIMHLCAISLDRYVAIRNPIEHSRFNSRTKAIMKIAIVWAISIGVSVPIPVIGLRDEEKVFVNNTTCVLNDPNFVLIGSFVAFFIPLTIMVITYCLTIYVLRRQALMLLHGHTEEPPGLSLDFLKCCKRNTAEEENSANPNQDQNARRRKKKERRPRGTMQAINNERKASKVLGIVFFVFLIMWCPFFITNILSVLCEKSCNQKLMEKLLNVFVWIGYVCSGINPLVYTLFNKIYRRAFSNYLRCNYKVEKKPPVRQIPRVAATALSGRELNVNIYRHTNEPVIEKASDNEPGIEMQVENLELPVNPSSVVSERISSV
Nature of the test: Binding affinity to 5-HT2C receptor.

Test [2] has as its target T1, 5-hydroxytryptamine receptor 2C. The experiment in a line: Displacement of [3H]Mesulergine from human recombinant serotonin 5-HT2C expressed in CHO-K1 cells. The class given is cell-based. A general note: Loss of bound radioactivity is the signal in a displacement assay; it reports binding, not function.

Some results are limits rather than exact numbers.

This note sets out measurements from ChEMBL document CHEMBL1154058, “Identification of novel serotonin 2C receptor ligands by sequential virtual screening” (Bioorg Med Chem, 2009).

On to `C[C@@H]1CNC[C@H]2Cc3ccc(COCC4CC4)nc3N21`, for which, in test [1], affinity was put at a Ki of 4 nM.

For `O=C1Nc2cc(Cl)c(Cl)cc2N2CCNC[C@H]12`, the Ki in test [1] was 3.3 nM.

Turning to `Clc1ccc(Cl)c(-c2ccnc(N3C[C@@H]4CCN[C@@H]4C3)n2)c1`, in test [1], the Ki is greater than 20000 nM.

In the case of `Clc1cccc(COc2cncc(N3CCNCC3)n2)c1`, in test [1], the Ki was determined as 1 nM.

In the case of `Cc1ccccc1NC(=O)N1CCN2CCCCC2C1` (configuration not stated), the IC50 in test [2] was greater than 10 µM.

Consider `CCC(=O)Nc1nn2c(-c3cccc(C)c3)nnc2s1`, for which, in test [2], the IC50 amounted to 9.22 µM.

For the compound `Cc1ccc(C2=NC3(CCNCC3)NC2=O)cc1C`, the IC50 in test [2] was greater than 10 µM.

On to `CN(C)CCNC(=O)c1nc(-c2cccnc2)no1`, for which the IC50 in test [2] is greater than 10 µM.

Take `Cn1c(=O)n(C)c2cc(CNCCN3CCOCC3)ccc21`: the IC50 in test [2] is greater than 10 µM.

Turning to `CCc1nnc2c(NCCC3=CCCCC3)nc3ccccc3n12`, the IC50 in test [2] was greater than 10 µM.

Take `Cc1cccc(CN2CCNC(=O)C2CC(=O)O)c1` (configuration not stated): in test [2], the IC50 was greater than 10 µM.

In the case of `CCn1ncc(C2=NOC(C(=O)NCCN3CCOCC3)C2)c1C` (configuration not stated), in test [2], the IC50 was greater than 10 µM.

The compound `C[C@@H]1CN(c2ccc(C(F)(F)F)c3ccoc23)CCN1` came in with a Ki in test [1] of 2.4 nM.

As to `CC(=O)N(CCN(C)C)c1nc2cc3c(cc2s1)OCO3`, the IC50 in test [2] was determined as 2.73 µM.

In turn, `Fc1cccc(F)c1-c1cc2c3c(c1)[C@H]1CNCC[C@H]1N3CCCS2` displayed a Ki in test [1] of 5.2 nM.

Take `Cn1ncc2c(Nc3ccc(F)cc3)nc(NCCN3CCOCC3)nc21`: in test [2], the IC50 was greater than 10 µM.

`COC(=O)c1cnn2c(O)nc(C3CCNCC3)nc12`: the IC50 in test [2] is 0.589 µM.

Consider `COc1ccc2c3c([nH]c2c1)[C@@](C)(C(=O)O)NCC3`, for which the IC50 in test [2] is greater than 10 µM.

As to `CCc1ccccc1NC(=O)CC1NCCNC1=O` (configuration not stated), the IC50 in test [2] is greater than 10 µM.

Consider `CN(C)CCNC(=O)c1ccc(-n2ccc3ccccc32)s1`, for which the IC50 in test [2] was 0.222 µM.

Turning to `CCCNc1nc(Nc2ccccc2)c2cnn(C)c2n1`, in test [2], the concentration for half-maximal inhibition (IC50) is greater than 10 µM.

With `CCOC(=O)C1=CCc2nc(C)nc(NCCN(C)C)c21`, the IC50 in test [2] worked out at 4.48 µM.

For `CCNc1nc(Nc2ccc(F)cc2)c2cnn(C)c2n1`, the IC50 in test [2] is greater than 10 µM.

`CC(=O)N(CCN(C)C)c1nc2c(F)cccc2s1`: the IC50 in test [2] was determined as 2 µM.

Regarding `CN1CCN(CCNC(=O)c2cc3ccc4cccnc4c3[nH]2)CC1`, in test [2], the IC50 was greater than 10 µM.

In the case of `COCCNc1nc(Nc2ccc(F)cc2)c2cnn(C)c2n1`, the half-maximal inhibitory concentration (IC50) in test [2] was greater than 10 µM.

Turning to `CCN1Cc2cccc(CNc3ccc(C)c(F)c3)c2C1`, the IC50 in test [2] came to 5.63 µM.

As for `COCCCNc1nc(Nc2ccc(F)cc2)c2cnn(C)c2n1`, the IC50 in test [2] was greater than 10 µM.

For the compound `C=CCNc1nc(Nc2ccc(F)cc2)c2cnn(C)c2n1`, the IC50 in test [2] is greater than 10 µM.

In the case of `Cn1ncc2c(Nc3ccc(F)cc3)nc(NC3CCCC3)nc21`, the half-maximal inhibitory concentration (IC50) in test [2] is greater than 10 µM.

For the compound `CCCNc1nc2ccc(C)cc2n2nnnc12`, in test [2], the IC50 is greater than 10 µM.

In the case of `Cc1noc2ncnc(NCCN3CCOCC3)c12`, the IC50 in test [2] was greater than 10 µM.

As to `Cc1ccc(NC(=O)N2CCN3CCCCC3C2)cc1C` (configuration not stated), in test [2], the IC50 was greater than 10 µM.

For the compound `C[C@@H](N)Cn1ccc2cc(F)c(Cl)cc21`, in test [1], affinity was put at a Ki of 1 nM.

`Cc1ccc(CCNc2nc3ccc(C)cc3n3nnnc23)cc1`: the IC50 in test [2] is greater than 10 µM.

For `CC(=O)Nc1c(C(=O)N2CCN(C)CC2)oc2ccccc12`, in test [2], the half-maximal inhibitory concentration (IC50) amounted to 5.29 µM.

On to `CCOC(=O)c1noc2ncnc(N3CCN(C)CC3)c12`, for which the IC50 in test [2] was determined as 2.05 µM.

In the case of `CCc1cc2c(ccc3cnn(C[C@@H](C)N)c32)o1`, the affinity in test [1], expressed as Ki, was 0.89 nM.

Take `CCN(CC)CCn1c(NCc2ccncc2)nc2ccccc21`: in test [2], the IC50 is greater than 10 µM.

For the compound `CCCCN(C)CCNc1nc(C)nc2oc(C)c(C(=O)OCC)c12`, the 50% inhibitory concentration (IC50) in test [2] stood at 4.17 µM.

With `Cc1cccc(C(=O)Nc2nn3c(-c4ccccc4C)nnc3s2)c1`, the IC50 in test [2] was greater than 10 µM.

Regarding `Cc1noc(C(=O)NCCN2CCOCC2)c1Cl`, in test [2], the IC50 was greater than 10 µM.

As for `CCOC(=O)c1c(C)oc2ncnc(NCCN3CCOCC3)c12`, the IC50 in test [2] is greater than 10 µM.

Consider `Cc1ccc2onc(CNC(=O)N3CCN(C)CC3)c2c1`, for which the IC50 in test [2] is 8.93 µM.

In the case of `Cc1nnc(SCc2cc(=O)n3nc(C4CC4)sc3n2)[nH]1`, the IC50 in test [2] was greater than 10 µM.

For `CC1CCCCN1CCNC(=O)c1noc2c1CCc1sccc1-2` (configuration not stated), the concentration for half-maximal inhibition (IC50) in test [2] was greater than 10 µM.

On to `Cn1ncc2c(Nc3ccc(F)cc3)nc(NCCCO)nc21`, for which the half-maximal inhibitory concentration (IC50) in test [2] is greater than 10 µM.

On to `CN(C)CCNC(=O)c1cc2ccccc2[nH]1`, for which, in test [2], the 50% inhibitory concentration (IC50) stood at 0.424 µM.

On to `COc1cc2c(cc1OC)C1CCCN1C(C)(C)C2` (configuration not stated), for which the IC50 in test [2] was greater than 10 µM.

With `Cc1cc(C(=O)NCCN2CCOCC2)on1`, in test [2], the IC50 is greater than 10 µM.

Consider `CCNc1nc(Nc2ccccc2)c2cnn(C)c2n1`, for which the IC50 in test [2] was greater than 10 µM.

As for `CCc1nnc2c(NC)nc3ccccc3n12`, the 50% inhibitory concentration (IC50) in test [2] turned out to be 5.11 µM.

Usually Ki stands for a dissociation constant, usually derived from enzyme kinetics or from competition with a known ligand. As usually defined, the IC50 is the midpoint of a concentration-inhibition curve.
